The numbers were not newly measured in US11278709B1, “Drug delivery device and methods for using same” (Pocket Naloxone Corp., priority 2021, dated 2022), which cites them from elsewhere.

The conditions of the data set: 4 mg dose via a nasal spray.

For `C=CCN1CC[C@]23c4c5ccc(O)c4O[C@H]2C(=O)CC[C@@]3(O)[C@H]1C5` [naloxone], the AUClast is 7.95 ng·h/mL and the peak concentration (Cmax) is recorded as 4.83 ng/mL.

As usually defined, the Cmax is the peak of the concentration-time curve.
